Laboratory results published in patent US10301272B2, “Carboxamide or sulfonamide substituted thiazoles and related derivatives as modulators for the orphan nuclear receptor ROR[γ]” (Phenex Pharmaceuticals AG, priority 2012, dated 2019).
Where two headings read alike, the source gives them in different places.

Legend:
RORγ = RORγ (Homo sapiens, UniProt P51449); experiment: RORγ Gal4 Reporter Gene Assay; assay type: cell-based
Procedure: Determination of a ligand mediated Gal4 promoter driven transactivation to quantify ligand binding to RORγ was performed as follows: DNA encoding three different RORγ protein fragments was cloned into vector pCMV-BD (Stratagene). Expression was under control of a CMV promoter and as fusion to the DNA-binding domain of the yeast protein GAL4. Other vectors used were pFR-Luc (Stratagene) as regulated reporter plasmid. pFR-Luc contains a synthetic promoter with five tandem repeats of the yeast GAL4 binding sites that control expression of the Photinus pyralis (American firefly) luciferase gene. In order to improve experimental accuracy the plasmid pRL-CMV was cotransfected. pRL-CMV contains the constitutive CMV promoter, controlling the expression of the Renilla reniformis luciferase.
The medium is supplemented with 10% fetal bovine serum, 0.1 mM nonessential amino acids, 1 mM sodium pyruvate, 1% Glutamax and 100 units Penicilin/[…] per mL at 37° C. in 5% CO2.
For the assay, […] were plated per well in 96 well plates in 100 μL per well, incubated over night at 37° C. in 5% CO2. […] About 4 h after addition of the transfection solution, fresh Minimal Essential Medium (MEM, same composition as used for plating cells, but without serum) was added. Then compound stocks, prediluted in MEM (same composition as used for plating cells) were added (final vehicle concentration not exceeding 0.1%).
All experiments were done at least in triplicates.

[1] = target: RORγ ligand binding domain (LBD) (Homo sapiens (Human), UniProt P51449); experiment: TR-FRET Activity Assay (ligand sensing assay, LANCE); conditions: for pIC50 (FRET): TR-FRET, interaction of RORγ-LBD with coactivator peptide
Chain of RORγ ligand binding domain (LBD) (P51449 269-508): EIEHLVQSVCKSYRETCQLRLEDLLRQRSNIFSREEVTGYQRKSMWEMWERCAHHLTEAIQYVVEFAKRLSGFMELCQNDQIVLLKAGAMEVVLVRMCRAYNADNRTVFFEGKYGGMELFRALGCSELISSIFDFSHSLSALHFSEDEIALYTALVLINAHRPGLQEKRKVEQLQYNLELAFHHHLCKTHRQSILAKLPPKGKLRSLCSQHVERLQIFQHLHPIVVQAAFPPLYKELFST

[2] = firefly (FF) luciferase, 293T cells, read-out: pIC50 (FF) (converted)
[3] = renilla normalised (RENnorm) luciferase, 293T cells, read-out: pIC50 (REN) (converted)

Chain of RORγ (P51449 whole entry, looked up, the tested form may be a part): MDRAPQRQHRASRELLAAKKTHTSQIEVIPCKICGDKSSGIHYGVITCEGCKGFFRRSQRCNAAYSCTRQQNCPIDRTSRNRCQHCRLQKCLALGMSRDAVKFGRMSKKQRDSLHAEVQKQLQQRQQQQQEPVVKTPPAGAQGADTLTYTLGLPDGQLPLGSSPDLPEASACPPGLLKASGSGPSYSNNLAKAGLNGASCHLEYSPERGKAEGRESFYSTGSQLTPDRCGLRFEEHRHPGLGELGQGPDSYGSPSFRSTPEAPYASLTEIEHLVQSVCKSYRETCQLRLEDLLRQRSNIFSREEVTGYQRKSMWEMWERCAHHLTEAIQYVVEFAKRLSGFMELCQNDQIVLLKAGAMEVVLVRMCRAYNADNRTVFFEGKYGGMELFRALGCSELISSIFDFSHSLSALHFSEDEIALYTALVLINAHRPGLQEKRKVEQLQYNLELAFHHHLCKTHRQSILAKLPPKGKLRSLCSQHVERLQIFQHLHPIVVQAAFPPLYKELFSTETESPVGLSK

SMILES | pIC50 (FF) (RORγ) | pIC50 (REN) (RORγ) | pIC50 (FRET) [1] | other results
CC(C)(C)NS(=O)(=O)c1ccc(-c2oc(C(=O)N[C@H]3C[C@H](C(=O)NS(C)(=O)=O)C3)nc2CC2CCCCC2)c2ccccc12 [Example 102/1] | 6.1/6.7/6.7 | 6.1/6.7/6.7 | 6.1/6.7/6.7 | 
COC(c1nc(C(=O)N[C@H]2C[C@H](C(=O)O)C2)sc1-c1ccc(S(=O)(=O)NC(C)(C)C)c(C(C)(C)C)c1)C1CCCCC1 (stereo partly drawn) [Example 19, trans-3-(5-(3-(tert-Butyl)-4-(N-(tert-butyl)sulfamoyl)phenyl)-4-(cyclohexyl(methoxy)methyl)thiazole-2-carboxamido)cyclobutanecarboxylic acid] | 5.4/6.4/6.6 | 5.4/6.4/6.6 | 5.4/6.4/6.6 | 
CC(C)(C)c1cc(-c2sc(C(=O)N[C@H]3C[C@H](C(=O)O)C3)nc2CC2CCCCC2)cc(C(C)(C)O)n1 [8/10] |  |  |  | IC50 (RORγ; [2]): 158 nM; IC50 (RORγ; [3]): 158 nM; IC50 [1]: 631 nM
CC(C)(C)NS(=O)(=O)c1ccc(-c2sc(C(=O)NC3CCC(C(=O)O)C3)nc2CC2CCCCC2)c2ccccc12 (centres unmarked) [6/51] | 6.3/8.4/8.4 | 6.3/8.4/8.4 | 6.3/8.4/8.4 | 
CC1(c2cc(Cl)cc(-c3sc(C(=O)N[C@H]4C[C@H](C(=O)O)C4)nc3CC3CCCCC3)c2)CC1 [9/9] | 5.4/6.9/7.0 | 5.4/6.9/7.0 | 5.4/6.9/7.0 | 
CC(O)c1c(S(=O)(=O)NC(C)(C)C)ccc(-c2sc(C(=O)N3CC4(CCS(=O)(=O)CC4)C3)nc2CC2CCCCC2)c1Cl (centres unmarked) [21/10] | 5.9/6.7/6.7 | 5.9/6.7/6.7 | 5.9/6.7/6.7 | 
CC(C)(O)CNC(=O)c1nc(CC2CCCCC2)c(-c2ccc(S(=O)(=O)NC(C)(C)C)c3cccc(F)c23)s1 [19/14] | 6.4/6.8/6.9 | 6.4/6.8/6.9 | 6.4/6.8/6.9 | 
CC(C)(O)c1ccc(-c2sc(C(=O)NC3CCS(=O)(=O)CC3)nc2CC2CCCCC2)c2ccccc12 [7/23] | <4.7/6.8/6.7 | <4.7/6.8/6.7 |  | IC50 [1]: > 20000 nM
CC(C)(C)NS(=O)(=O)c1ccc(-c2oc(C(=O)N[C@H]3C[C@H](C(=O)O)C3)nc2CC2CCCCC2)c2ccccc12 [100/13] | 6.1/7.0/7.1 | 6.1/7.0/7.1 | 6.1/7.0/7.1 | 
CCS(=O)(=O)c1ccc(CC(=O)Nc2nc(CC3CCCCC3)c(-c3ccc(S(=O)(=O)NC(C)(C)C)c(C(F)(F)F)c3)s2)cc1 [Example 200/1] | 7.1/7.4/7.8 | 7.1/7.4/7.8 | 7.1/7.4/7.8 | 
CC(C)(C)NS(=O)(=O)c1ccc(-c2sc(C(=O)NC3CS(=O)(=O)C3)nc2CC2CCCCC2)c(Cl)c1Cl [15/4] | 7.3/8.7/9.0 | 7.3/8.7/9.0 | 7.3/8.7/9.0 | 
CC(C)(C)NS(=O)(=O)c1ccc(-c2sc(C(=O)N3CC4(CCS(=O)(=O)CC4)C3)nc2CC2CCCCC2)c(Cl)c1Cl [6/45] | 7.1/7.9/8.0 | 7.1/7.9/8.0 | 7.1/7.9/8.0 | 
CC(C)(C)NS(=O)(=O)c1ccc(-c2sc(C(=O)NCC3(O)CCOCC3)nc2CC2CCCCC2)cc1C(C)(C)O [6/27] | 6.7/7.7/7.7 | 6.7/7.7/7.7 | 6.7/7.7/7.7 | 
CC(C)(C)NS(=O)(=O)c1ccc(-c2sc(C(=O)N[C@H]3C[C@H](C(=O)O)C3)cc2CC2CCCCC2)c2ccccc12 [Example 307, trans-3-(5-(4-(N-(tert-Butyl)sulfamoyl)naphthalen-1-yl)-4-(cyclohexylmethyl)thiophene-2-carboxamido)cyclobutanecarboxylic acid] | nt/8.2/8.3 | nt/8.2/8.3 |  | 
CCC(C)(C)NS(=O)(=O)c1ccc(-c2sc(C(=O)NCC(C)(C)O)nc2CC2CCC2)c(OC(F)(F)F)c1 [21/25] | nt/7.7/7.8 | nt/7.7/7.8 |  | 
CC1CCN(C(=O)c2nc(C(=O)N3CC4(CCOCC4)C3)sc2-c2ccc(S(=O)(=O)NC(C)(C)C)c3ccccc23)CC1 [304/17] | nt/7.2/7.2 | nt/7.2/7.2 |  | 
CC(C)(O)CNC(=O)c1nc(CC2CCCCC2)c(-c2ccc(S(=O)(=O)NC(C)(C)C)cc2OC(F)(F)F)s1 [21/8] | nt/7.7/7.8 | nt/7.7/7.8 |  | 
CCC(C)(C)NS(=O)(=O)c1ccc(-c2sc(C(=O)NCc3ncc(S(C)(=O)=O)s3)nc2C(=O)N2CCC(C)CC2)c(Cl)c1C [Example 303, 5-(2-Chloro-3-methyl-4-(N-(tert-pentyl)sulfamoyl)phenyl)-4-(4-methylpiperidine-1-carbonyl)-N-((5-(methylsulfonyl)thiazol-2-yl)methyl)thiazole-2-carboxamide] | nt/7.7/7.7 | nt/7.7/7.7 |  | 
CC(C)(C)c1cc(-c2nc(C(=O)N[C@H]3C[C@H](C(=O)O)C3)sc2CC2CCCCC2)cc(C2(C)CC2)c1 [Example 25, trans-3-(4-(3-(tert-Butyl)-5-(1-methylcyclopropyl)phenyl)-5-(cyclohexylmethyl)thiazole-2-carboxamido)cyclobutanecarboxylic acid] |  |  |  | pIC50 (FF) (RORγ; firefly (FF) luciferase, 293T cells): nt/6.1/6.1; pIC50 (REN) (RORγ; renilla normalised (RENnorm) luciferase, 293T cells): nt/6.1/6.1
CC1CCN(C(=O)c2nc(C(=O)NC3CC34CCOCC4)sc2-c2ccc(S(=O)(=O)NC(C)(C)C)c3ccccc23)CC1 (centres unmarked) [304/18] | nt/7.5/7.7 | nt/7.5/7.7 |  | 
CC(C)(CCO)NC(=O)c1cc(-c2sc(C(=O)NC3CCS(=O)(=O)CC3)nc2CC2CCCCC2)cc(C2(C)CC2)c1 [10/3] | nt/7.9/8.0 | nt/7.9/8.0 |  | 
C[C@H](NS(=O)(=O)c1ccc(-c2sc(C(=O)NCC(C)(C)O)nc2CC2CCC(F)(F)CC2)c2ccccc12)C(F)(F)F [21/23] | nt/8.7/8.6 | nt/8.7/8.6 |  | 
C[C@H](NS(=O)(=O)c1ccc(-c2sc(C(=O)NCC(C)(C)O)nc2CC2CCC2)c(Cl)c1)C(F)(F)F [21/19] | nt/7.9/7.9 | nt/7.9/7.9 |  | 
CC(C)(C)NS(=O)(=O)c1ccc(-c2sc(C(=O)NCC(C)(C)c3nn[nH]n3)nc2CC2CCCCC2)c2ccccc12 [6/59] | nt/7.6/7.8 | nt/7.6/7.8 |  | 
CC1CCN(C(=O)c2nc(C(=O)N3CC4(CCS(=O)(=O)CC4)C3)oc2-c2ccc(S(=O)(=O)NC(C)(C)C)c3ccccc23)CC1 [Example 306, N-(tert-Butyl)-4-(2-(7,7-dioxido-7-thia-2-azaspiro[3.5]nonane-2-carbonyl)-4-(4-methyl-piperidine-1-carbonyl)oxazol-5-yl)naphthalene-1-sulfonamide] | nt/5.6/5.6 | nt/5.6/5.6 |  | 
CCC(C)(C)NS(=O)(=O)c1ccc(-c2sc(C(=O)N3CC4(C3)CS(=O)(=O)C4)nc2C(=O)N2CCC(C)CC2)c(Cl)c1C [301/2] | nt/7.7/7.8 | nt/7.7/7.8 |  | 
CC1CCN(C(=O)c2nc(C(=O)NCC(C)(C)O)sc2-c2ccc(S(=O)(=O)NC3(C)CCC3)c3ccccc23)CC1 [304/26] | nt/8.0/7.9 | nt/8.0/7.9 |  | 
CC(C)(C)NS(=O)(=O)c1ccc(-c2sc(C(=O)N3CCS(=O)(=O)CC3)nc2CC2CCCCC2)c2ccccc12 [6/55] | nt/8.0/8.2 | nt/8.0/8.2 |  | 
C[C@H](NS(=O)(=O)c1ccc(-c2sc(C(=O)NC3CCS(=O)(=O)CC3)nc2CC2CCCC2)c2ccccc12)C(F)(F)F [8/11] |  |  |  | IC50 (RORγ; [2]): 1 nM; IC50 (RORγ; [3]): 1 nM
